Measurements published in ChEMBL document CHEMBL4507299, “Data for DCP probe PF-04554878” (2021).
The source made the active and inactive calls.

Columns and labels:
[1] = molecular target: Protein-tyrosine kinase 2-beta (Homo sapiens, UniProt Q14289); test: Binding assay (PTK2B)
[2] = test system: Tyrosine-protein kinase ABL1 (Homo sapiens), P00519 [Q252H]
[3] = test system: ALK tyrosine kinase receptor (Homo sapiens), Q9UM73 [L1196M]
[4] = molecular target: Mitogen-activated protein kinase kinase kinase 5 (Homo sapiens) (UniProt Q99683)
[5] = molecular target: Serine/threonine-protein kinase BRSK1 (Homo sapiens) (UniProt Q8TDC3)
[6] = molecular target: Serine/threonine-protein kinase BRSK2 (Homo sapiens) (UniProt Q8IWQ3)
[7] = molecular target: Cyclin-dependent kinase 7 (Homo sapiens) (UniProt P50613)
[8] = molecular target: Serine/threonine-protein kinase Chk2 (Homo sapiens) (UniProt O96017)
Chain of Serine/threonine-protein kinase Chk2 (Homo sapiens) (O96017 whole entry, canonical isoform): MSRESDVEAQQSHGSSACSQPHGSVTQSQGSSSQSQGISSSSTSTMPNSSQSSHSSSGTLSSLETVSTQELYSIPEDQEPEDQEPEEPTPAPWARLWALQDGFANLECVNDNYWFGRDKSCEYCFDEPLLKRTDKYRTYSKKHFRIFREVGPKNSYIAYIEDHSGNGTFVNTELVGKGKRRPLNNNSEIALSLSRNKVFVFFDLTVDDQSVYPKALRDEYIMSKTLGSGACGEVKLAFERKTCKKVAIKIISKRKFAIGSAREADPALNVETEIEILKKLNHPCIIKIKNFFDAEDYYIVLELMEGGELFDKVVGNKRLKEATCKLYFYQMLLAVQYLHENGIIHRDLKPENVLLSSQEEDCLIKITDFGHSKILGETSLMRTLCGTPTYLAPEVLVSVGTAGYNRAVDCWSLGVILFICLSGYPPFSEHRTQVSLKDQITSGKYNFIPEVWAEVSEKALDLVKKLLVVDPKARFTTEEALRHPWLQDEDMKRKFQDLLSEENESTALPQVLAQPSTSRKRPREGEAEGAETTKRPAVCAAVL

[9] = molecular target: Casein kinase I isoform delta (Homo sapiens) (UniProt P48730)
Chain of Casein kinase I isoform delta (Homo sapiens) (P48730 whole entry, looked up, canonical isoform): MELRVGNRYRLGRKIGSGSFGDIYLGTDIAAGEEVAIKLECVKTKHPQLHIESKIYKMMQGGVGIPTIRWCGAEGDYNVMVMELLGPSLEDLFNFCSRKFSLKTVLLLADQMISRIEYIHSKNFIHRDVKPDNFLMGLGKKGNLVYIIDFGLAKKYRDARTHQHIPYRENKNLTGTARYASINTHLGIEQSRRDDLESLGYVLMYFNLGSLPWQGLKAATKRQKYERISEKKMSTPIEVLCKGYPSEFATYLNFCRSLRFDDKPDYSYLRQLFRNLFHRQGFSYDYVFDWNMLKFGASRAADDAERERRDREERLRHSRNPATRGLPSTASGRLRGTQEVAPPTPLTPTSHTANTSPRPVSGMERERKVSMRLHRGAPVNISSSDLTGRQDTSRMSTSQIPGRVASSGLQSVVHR

[10] = test system: Epidermal growth factor receptor (Homo sapiens), P00533 [G719S]
Focal adhesion kinase 1 = Focal adhesion kinase 1 (Homo sapiens, UniProt Q05397)
Chain of Focal adhesion kinase 1 (Q05397 2-1052 limits assumed): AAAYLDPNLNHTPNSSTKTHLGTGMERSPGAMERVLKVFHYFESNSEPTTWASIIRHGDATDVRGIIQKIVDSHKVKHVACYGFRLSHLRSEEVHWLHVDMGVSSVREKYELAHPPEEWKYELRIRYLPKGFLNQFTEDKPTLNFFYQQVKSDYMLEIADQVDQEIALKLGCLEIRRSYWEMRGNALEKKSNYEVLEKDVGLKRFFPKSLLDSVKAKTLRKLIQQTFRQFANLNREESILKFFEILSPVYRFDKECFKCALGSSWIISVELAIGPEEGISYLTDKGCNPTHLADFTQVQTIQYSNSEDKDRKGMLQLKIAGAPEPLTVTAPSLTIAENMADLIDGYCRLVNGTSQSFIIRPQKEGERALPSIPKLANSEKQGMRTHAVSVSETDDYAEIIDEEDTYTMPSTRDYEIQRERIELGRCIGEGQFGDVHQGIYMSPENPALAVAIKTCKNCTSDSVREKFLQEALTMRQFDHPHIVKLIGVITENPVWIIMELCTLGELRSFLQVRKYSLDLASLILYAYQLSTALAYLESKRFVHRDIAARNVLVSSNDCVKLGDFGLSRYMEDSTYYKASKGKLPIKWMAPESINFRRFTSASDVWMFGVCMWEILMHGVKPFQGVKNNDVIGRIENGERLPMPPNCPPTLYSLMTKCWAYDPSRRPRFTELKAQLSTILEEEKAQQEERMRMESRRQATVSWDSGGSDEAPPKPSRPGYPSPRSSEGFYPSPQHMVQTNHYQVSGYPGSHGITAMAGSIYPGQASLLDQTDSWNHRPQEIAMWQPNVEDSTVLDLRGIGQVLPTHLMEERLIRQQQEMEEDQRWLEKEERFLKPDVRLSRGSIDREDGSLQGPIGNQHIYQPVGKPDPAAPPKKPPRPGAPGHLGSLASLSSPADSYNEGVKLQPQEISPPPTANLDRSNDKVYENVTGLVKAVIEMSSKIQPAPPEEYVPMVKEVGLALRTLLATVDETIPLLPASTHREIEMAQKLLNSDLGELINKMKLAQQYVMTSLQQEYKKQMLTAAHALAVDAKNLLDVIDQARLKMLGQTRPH

[11] = molecular target: Insulin receptor-related protein (Homo sapiens) (UniProt P14616)
[12] = molecular target: Leukocyte tyrosine kinase receptor (Homo sapiens) (UniProt P29376)
[13] = test system: Hepatocyte growth factor receptor (Homo sapiens), P08581 [Y1235D]
[14] = molecular target: Misshapen-like kinase 1 (Homo sapiens) (UniProt Q8N4C8)
[15] = molecular target: Serine/threonine-protein kinase Nek2 (Homo sapiens) (UniProt P51955)
[16] = molecular target: Mitogen-activated protein kinase kinase kinase 14 (Homo sapiens) (UniProt Q99558)
[17] = molecular target: Mitogen-activated protein kinase 11 (Homo sapiens) (UniProt Q15759)
[18] = molecular target: Mitogen-activated protein kinase 13 (Homo sapiens) (UniProt O15264)
Chain of Mitogen-activated protein kinase 13 (Homo sapiens) (O15264 whole entry): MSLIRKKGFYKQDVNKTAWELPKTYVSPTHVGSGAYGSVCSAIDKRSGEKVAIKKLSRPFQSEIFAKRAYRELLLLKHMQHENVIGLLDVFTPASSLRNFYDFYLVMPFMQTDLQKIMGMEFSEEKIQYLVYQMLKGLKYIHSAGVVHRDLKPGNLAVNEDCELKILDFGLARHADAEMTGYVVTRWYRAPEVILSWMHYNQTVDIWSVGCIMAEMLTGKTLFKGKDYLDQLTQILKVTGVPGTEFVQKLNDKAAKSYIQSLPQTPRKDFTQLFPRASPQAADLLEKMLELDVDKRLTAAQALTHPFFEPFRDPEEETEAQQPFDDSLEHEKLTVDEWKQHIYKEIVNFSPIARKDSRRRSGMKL

[19] = molecular target: Cyclin-dependent kinase 14 (Homo sapiens) (UniProt O94921)
[20] = molecular target: Phosphatidylinositol 3-kinase C2 domain-containing subunit gamma (Homo sapiens) (UniProt O75747)
[21] = test system: Phosphatidylinositol 4,5-bisphosphate 3-kinase catalytic subunit alpha isoform (Homo sapiens), P42336 [H1047L]
Chain of Phosphatidylinositol 4,5-bisphosphate 3-kinase catalytic subunit alpha isoform (Homo sapiens), P42336 [H1047L] (P42336 whole entry H1047L, canonical isoform): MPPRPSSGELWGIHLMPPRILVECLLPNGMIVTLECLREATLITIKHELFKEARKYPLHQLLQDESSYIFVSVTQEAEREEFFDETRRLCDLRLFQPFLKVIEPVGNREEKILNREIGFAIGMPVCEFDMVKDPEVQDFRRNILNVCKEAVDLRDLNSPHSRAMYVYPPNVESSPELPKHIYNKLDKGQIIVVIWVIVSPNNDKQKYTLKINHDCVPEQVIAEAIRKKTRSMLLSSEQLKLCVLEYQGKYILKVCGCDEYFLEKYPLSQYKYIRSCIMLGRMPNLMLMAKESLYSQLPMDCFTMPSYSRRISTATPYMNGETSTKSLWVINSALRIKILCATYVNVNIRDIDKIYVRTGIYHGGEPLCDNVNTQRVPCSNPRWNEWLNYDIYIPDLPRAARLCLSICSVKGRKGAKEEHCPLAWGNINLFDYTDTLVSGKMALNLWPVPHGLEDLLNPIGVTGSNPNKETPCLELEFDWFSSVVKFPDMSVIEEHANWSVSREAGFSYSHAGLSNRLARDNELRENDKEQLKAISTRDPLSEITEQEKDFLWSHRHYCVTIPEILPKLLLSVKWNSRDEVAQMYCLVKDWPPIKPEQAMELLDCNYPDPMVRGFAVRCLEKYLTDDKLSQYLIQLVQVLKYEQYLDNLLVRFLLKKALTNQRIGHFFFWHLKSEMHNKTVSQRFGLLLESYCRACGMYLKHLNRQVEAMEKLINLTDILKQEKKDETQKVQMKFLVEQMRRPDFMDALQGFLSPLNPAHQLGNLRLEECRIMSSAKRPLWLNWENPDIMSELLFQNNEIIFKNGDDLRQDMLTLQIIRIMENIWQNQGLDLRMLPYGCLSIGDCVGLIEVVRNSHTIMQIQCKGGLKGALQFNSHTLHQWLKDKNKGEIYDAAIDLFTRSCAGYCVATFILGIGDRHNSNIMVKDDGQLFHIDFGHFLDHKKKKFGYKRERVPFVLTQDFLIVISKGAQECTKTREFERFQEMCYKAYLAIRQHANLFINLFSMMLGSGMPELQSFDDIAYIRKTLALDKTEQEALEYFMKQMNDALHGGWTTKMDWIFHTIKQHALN

[22] = molecular target: Membrane-associated tyrosine- and threonine-specific cdc2-inhibitory kinase (Homo sapiens) (UniProt Q99640)
[23] = molecular target: Rho-associated protein kinase 2 (Homo sapiens) (UniProt O75116)
[24] = molecular target: Ribosomal protein S6 kinase beta-1 (Homo sapiens) (UniProt P23443)
[25] = molecular target: NUAK family SNF1-like kinase 2 (Homo sapiens) (UniProt Q9H093)
[26] = molecular target: T1, Serine/threonine-protein kinase TAO3 (Homo sapiens) (UniProt Q9H2K8)
T1 sequence (whole entry): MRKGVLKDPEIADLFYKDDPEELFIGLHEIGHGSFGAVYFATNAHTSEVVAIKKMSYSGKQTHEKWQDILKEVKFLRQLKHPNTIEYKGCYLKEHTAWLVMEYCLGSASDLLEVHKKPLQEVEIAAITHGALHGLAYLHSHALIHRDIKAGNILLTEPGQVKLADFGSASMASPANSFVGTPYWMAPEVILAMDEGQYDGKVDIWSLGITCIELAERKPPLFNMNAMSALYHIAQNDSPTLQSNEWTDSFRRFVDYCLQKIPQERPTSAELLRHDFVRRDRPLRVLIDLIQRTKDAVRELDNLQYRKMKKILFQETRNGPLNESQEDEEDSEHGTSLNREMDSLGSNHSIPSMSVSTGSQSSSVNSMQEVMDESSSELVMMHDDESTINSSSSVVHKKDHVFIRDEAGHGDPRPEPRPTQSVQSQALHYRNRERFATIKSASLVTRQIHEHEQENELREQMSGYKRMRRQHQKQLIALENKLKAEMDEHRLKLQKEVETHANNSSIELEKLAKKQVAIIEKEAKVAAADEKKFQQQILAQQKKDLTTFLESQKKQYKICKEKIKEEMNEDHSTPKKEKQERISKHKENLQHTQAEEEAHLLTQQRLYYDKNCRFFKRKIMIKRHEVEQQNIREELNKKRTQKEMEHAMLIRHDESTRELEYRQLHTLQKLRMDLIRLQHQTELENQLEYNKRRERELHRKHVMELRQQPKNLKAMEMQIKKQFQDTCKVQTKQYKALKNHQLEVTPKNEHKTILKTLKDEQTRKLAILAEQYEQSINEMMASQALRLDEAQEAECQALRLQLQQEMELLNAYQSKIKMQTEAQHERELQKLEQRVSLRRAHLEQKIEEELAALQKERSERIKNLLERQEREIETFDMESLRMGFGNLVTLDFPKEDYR

[27] = molecular target: Serine/threonine-protein kinase tousled-like 2 (Homo sapiens) (UniProt Q86UE8)
[28] = molecular target: Activated CDC42 kinase 1 (Homo sapiens) (UniProt Q07912)
Chain of Activated CDC42 kinase 1 (Homo sapiens) (Q07912 whole entry, looked up): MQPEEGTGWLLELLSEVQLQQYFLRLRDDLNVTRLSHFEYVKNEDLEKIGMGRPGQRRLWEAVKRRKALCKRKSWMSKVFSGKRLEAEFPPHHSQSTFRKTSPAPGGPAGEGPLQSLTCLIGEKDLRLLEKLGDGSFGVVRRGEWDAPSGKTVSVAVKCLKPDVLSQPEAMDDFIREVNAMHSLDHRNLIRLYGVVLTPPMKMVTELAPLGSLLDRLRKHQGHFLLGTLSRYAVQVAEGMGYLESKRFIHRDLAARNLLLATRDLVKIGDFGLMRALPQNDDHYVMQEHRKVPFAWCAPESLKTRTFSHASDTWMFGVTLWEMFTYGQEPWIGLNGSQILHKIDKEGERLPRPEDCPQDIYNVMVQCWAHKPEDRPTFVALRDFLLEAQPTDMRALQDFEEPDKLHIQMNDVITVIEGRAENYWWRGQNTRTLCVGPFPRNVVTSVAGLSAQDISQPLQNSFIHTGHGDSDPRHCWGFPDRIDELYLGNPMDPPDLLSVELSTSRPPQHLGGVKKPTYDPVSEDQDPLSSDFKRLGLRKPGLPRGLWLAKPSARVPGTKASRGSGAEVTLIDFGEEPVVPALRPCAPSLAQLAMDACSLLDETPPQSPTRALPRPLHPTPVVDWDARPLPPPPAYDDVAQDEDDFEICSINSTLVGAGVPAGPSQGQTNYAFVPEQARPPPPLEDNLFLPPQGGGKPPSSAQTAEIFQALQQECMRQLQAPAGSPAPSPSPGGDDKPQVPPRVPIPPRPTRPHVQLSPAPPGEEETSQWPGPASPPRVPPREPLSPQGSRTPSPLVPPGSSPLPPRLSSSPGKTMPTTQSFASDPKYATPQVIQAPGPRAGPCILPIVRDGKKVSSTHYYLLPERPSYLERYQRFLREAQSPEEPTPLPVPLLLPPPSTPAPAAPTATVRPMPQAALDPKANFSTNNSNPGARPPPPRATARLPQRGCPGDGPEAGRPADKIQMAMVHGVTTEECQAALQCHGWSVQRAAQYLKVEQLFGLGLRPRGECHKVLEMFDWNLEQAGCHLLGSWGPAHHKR

[29] = molecular target: NT-3 growth factor receptor (Homo sapiens) (UniProt Q16288)
[30] = molecular target: Serine/threonine-protein kinase ULK1 (Homo sapiens) (UniProt O75385)
[31] = molecular target: Histamine H3 receptor (Homo sapiens) (UniProt Q9Y5N1); conditions: Compound concentration 10.0 uM
[32] = molecular target: Muscarinic acetylcholine receptor M1 (Homo sapiens) (UniProt P11229); conditions: Compound concentration 10.0 uM
Chain of Muscarinic acetylcholine receptor M1 (Homo sapiens) (P11229 whole entry): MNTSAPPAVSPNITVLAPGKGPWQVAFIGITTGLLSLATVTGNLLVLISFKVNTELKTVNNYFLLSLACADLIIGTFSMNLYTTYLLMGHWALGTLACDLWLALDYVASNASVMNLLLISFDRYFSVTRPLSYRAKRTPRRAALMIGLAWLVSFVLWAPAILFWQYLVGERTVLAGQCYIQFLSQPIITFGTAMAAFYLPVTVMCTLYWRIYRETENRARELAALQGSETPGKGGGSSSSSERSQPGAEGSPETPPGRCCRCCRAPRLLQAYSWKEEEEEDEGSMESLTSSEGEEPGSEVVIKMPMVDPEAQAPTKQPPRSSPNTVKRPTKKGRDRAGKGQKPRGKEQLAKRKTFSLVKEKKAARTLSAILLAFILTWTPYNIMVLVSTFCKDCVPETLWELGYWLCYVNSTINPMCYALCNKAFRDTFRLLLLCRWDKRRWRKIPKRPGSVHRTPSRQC

[33] = Compound concentration 100.0 nM
[34] = Compound concentration 1000.0 nM

CNC(=O)c1ccc(Nc2ncc(C(F)(F)F)c(NCc3nccnc3N(C)S(C)(=O)=O)n2)cc1 [DEFACTINIB]
inactive: residual activity [2, 33] 98% | residual activity [3, 33] 85% | residual activity [4, 33] 100% | residual activity [5, 33] 100% | residual activity [6, 33] 100% | residual activity [7, 33] 59% | residual activity [8, 33] 100% | residual activity [9, 33] 98% | residual activity [10, 33] 92% | residual activity [11, 33] 95% | residual activity [12, 33] 89% | residual activity [13, 33] 71% | residual activity [15, 33] 75% | residual activity [16, 33] 92% | residual activity [17, 33] 76% | residual activity [18, 33] 91% | residual activity [19, 33] 88% | residual activity [20, 33] 92% | residual activity [22, 33] 94% | residual activity [23, 33] 100% | residual activity [24, 33] 96% | residual activity [25, 33] 53% | residual activity [27, 33] 90% | residual activity [28, 33] 100% | inhibition [31] -7.94% | inhibition [32] 19.3%
active: IC50 [1] 0.2 nM | residual activity (Focal adhesion kinase 1; [33]) 0.2% | residual activity [14, 33] 44% | residual activity [21, 33] 32% | residual activity [26, 33] 26% | residual activity [29, 33] 41% | residual activity [30, 33] 47%

CN(c1ccnc(CNc2nc(Nc3ccc4c(c3)CC(=O)N4)ncc2C(F)(F)F)n1)S(C)(=O)=O [PF-00911705]
active: residual activity [5, 34] 43% | residual activity [7, 34] 3.5% | residual activity [8, 34] 0% | residual activity (Focal adhesion kinase 1; [34]) 4.9% | residual activity [13, 34] 10% | residual activity [25, 34] 7.6% | residual activity [26, 34] 12% | residual activity [29, 34] 45% | residual activity [30, 34] 1.2%
inactive: residual activity [2, 34] 94% | residual activity [3, 34] 65% | residual activity [4, 34] 100% | residual activity [6, 34] 97% | residual activity [9, 34] 100% | residual activity [10, 34] 89% | residual activity [11, 34] 100% | residual activity [12, 34] 100% | residual activity [14, 34] 53% | residual activity [15, 34] 83% | residual activity [16, 34] 65% | residual activity [17, 34] 85% | residual activity [18, 34] 100% | residual activity [19, 34] 86% | residual activity [20, 34] 77% | residual activity [21, 34] 92% | residual activity [22, 34] 100% | residual activity [23, 34] 69% | residual activity [24, 34] 50% | residual activity [27, 34] 100% | residual activity [28, 34] 86% | inhibition [31] 12.9% | inhibition [32] -6.58%
721 nM (not active): IC50 [1]
